Source: paper PMC6345779, “Hypoculoside, a sphingoid base-like compound from Acremonium disrupts the membrane integrity of yeast cells” (Scientific Reports, 2019)

Columns and labels:
Staphylococcus aureus = test system: Staphylococcus aureus; parameters: method as in PMID 23128426; conditions: also disrupt cell membrane; cited from earlier work
[1] = test system: Wild type strain (BY4743); assay: Rescue of myriocin-induced growth inhibition in yeast; format: cell-based, Saccharomyces cerevisiae; conditions: for rescue of myriocin-induced inhibition: added at 10 μM
Protocol: Myriocin is an inhibitor of Serine palmitoyltransferase (SPT), which catalyzes the first step in the synthesis of sphingolipid biosynthesis. Addition of PHS or DHS can rescue inhibition caused by myriocin[28]. We tested whether hypoculoside can rescue the toxicity of myriocin–treated cells.
Wild type strain (BY4743) was grown in YPD medium containing different concentrations of myriocin and either phytosphingosine (PHS) or dihydrosphingosine (DHS) or hypoculoside (HYP) at the indicated concentrations. Normalized growth at the different concentrations after 24 hours of incubation at 30 °C is plotted for the various cultures.

[2] = test system: Saccharomyces cerevisiae diploid wild-type strain (BY4743); assay: Growth inhibition of wild type Saccharomyces cerevisiae in YPD medium (96-well, OD600); format: cell-based; conditions: for concentration that completely inhibited the growth of wild type yeast cells: 24 hours at 30 °C (Fig. 5B); for inhibitory concentration relative to inhibitory concentration of hypoculoside: wild type yeast cells, higher than hypoculoside
Protocol: (§1) Figure 5 Structure-activity studies of hypoculoside. (A) Wild type strain (BY4743), vps35Δ, pep8Δ, vps20Δ, vps27Δ and vps36Δ strains were grown in YPD medium in the presence of hypoculoside or hypoculine at the indicated concentrations. Normalized growth at the different concentrations of hypoculoside and hypoculine tested after 24 hours of incubation at 30 °C is plotted for each strain. (B) Wild type strain (BY4743), vps35Δ, pep8Δ, vps20Δ, vps27Δ and vps36Δ strains were grown in YPD medium in the presence of hypoculoside or phytosphingosine or dihydrosphingosine at the indicated concentrations. Normalized growth at the different concentrations of hypoculoside, phytosphingosine and dihydrosphingosine tested after 24 hours of incubation at 30 °C is plotted for each strain.
Susceptibility of Candida albicans strain SC5314 to hypoculoside and amphotericin B was determined by a broth microdilution assay using Clinical Laboratory Standards Institute (CLSI) guidelines. Cells grown to exponential phase in YPD medium (1% Yeast extract, 2% Bacto peptone and 2% glucose) were harvested, washed and resuspended in RPMI 1640 medium at a density of 2×10^3 cells/mL. RPMI 1640 medium with L-glutamine without sodium bicarbonate (Sigma) was buffered with 0.165 M morpholinepropanesulfonic acid (MOPS) to a pH of 7.0. Two-fold dilutions of hypoculoside and amphotericin B were prepared such that final concentration of DMSO was 1% in all cultures. Cell suspension was distributed in microtiter plate (200 µL/well) and incubated at 35 °C with 220 rpm for 24 h. The Saccharomyces cerevisiae diploid wild-type strain (BY4743) was used for determining the Inhibitory Concentration (IC) of hypoculoside. Frozen yeast cells were allowed to recover on YPD agar plates and grown in YPD medium for nine generations (OD600 nm ≤ 2). Cells were diluted to OD600 nm of 0.0625 in YPD medium. 200 μL of the diluted yeast culture was transferred into the 96-well microtiter plate having 2-fold serially diluted concentrations of hypoculoside. Cells were incubated in a microplate reader for 16–24 hours at 30 °C with shaking. IC of hypoculoside was computed by comparing the growth of treated versus control cells.

[3] = test system: vps35Δ, pep8Δ, vps20Δ, vps27Δ and vps36Δ strains; assay: Single-mutant sensitivity growth assay of deletion strains in YPD medium; format: cell-based, Saccharomyces cerevisiae; conditions: for growth of the 5 hypoculoside-sensitive mutants compared with wild type strain: 20 µM, vps35, pep8, vps20, vps27, vps36
Protocol: Figure 3 Homozygous profiling of hypoculoside in Saccharomyces cerevisiae. (A) logFC (Fitness Coefficient) was plotted against P-value for the 3702 mutants that were analyzed by HOP. The more negative the logFC value of a mutant, more sensitive is the mutant to hypoculoside. Mutants that have logFC < −0.5 and P-value < 0.05 are indicated by red dots and the remaining strains are indicated as blue dots. For the sake of clarity, gene names of only a subset of the top hits are indicated in the plot. (B) Wild type strain BY4743 and 24 deletion strains that were sensitive to hypoculoside in the HOP assay, were grown in the YPD medium in the presence of either DMSO or hypoculoside at different concentrations (0, 0.6, 1.3, 2.7 and 5.5 µM). Normalized growth at the different concentrations of hypoculoside tested after 24 hours of incubation at 30 °C is plotted for each strain.
To test the validity of our HOP data, we first identified 336 ‘hypoculoside-sensitive’ mutants (Supplementary Table S1) that had at least a 1.4-fold inhibitory effect on their growth rate (i.e. logFC ≤ −0.5) with a P-value ≤ 0.05. From the list of 336 mutants, we chose 24 mutants that represent different Gene Ontology categories (see below) and tested their sensitivity to hypoculoside. Eighteen of the total 24 mutants were sensitive to hypoculoside confirming the HOP data (Fig. 3B). We also tested mutants that were predicted to be resistant to hypoculoside (positive logFC ≥ 0.5 and P-value ≤ 0.05). But none of them were resistant to hypoculoside in comparison to wild type strain in the single-mutant sensitivity assays (data not shown).
as §1

[4] = test system: vacuoles of wild type yeast cells; assay: FM 4-64 fluorescence microscopy of vacuolar structure; format: cell-based, Saccharomyces cerevisiae; conditions: 11.6 µM, FM 4-64 pre-labelled wild type cells, N = 100 cells
Protocol: As several vacuolar transport mutants were sensitive to hypoculoside (Fig. 3), we examined the effect of hypoculoside on the vacuolar structure of yeast cells. We incubated wild type yeast cells with FM 4–64, a dye that stains the vacuolar membranes, for 1 hour. We then washed off the excess FM 4–64 from the medium and transferred the cells into fresh medium with either hypoculoside or hypoculine or DMSO. […] In contrast, about 50% of 11.6 µM hypoculoside-treated cells had defective vacuoles (Fig. 7B). However, only 3% of 11.6 µM hypoculine-treated cells had defective vacuoles. Thus, the effect of hypoculoside and hypoculine on vacuolar structure correlates with their inhibitory activities.
Figure 7 Hypoculoside but not hypoculine disrupts the vacuolar structure of yeast cells. Wild type yeast cells containing vacuoles pre-labelled with the lipophilic dye FM 4-64 were exposed to either DMSO or hypoculoside or hypoculine at the indicated concentrations for 1 hour. Effects of the compounds on vacuolar morphology was analyzed by fluorescence microscopy. […] (B) Quantification of the various categories for cells treated with either DMSO or hypoculoside or hypoculine is plotted (N = 100 cells). […]
Labeling of yeast cells with FM4-64 (Invitrogen) was done as previously reported. […] The images were acquired using an inverted fluorescence microscope ZEISS LSM 5 LIVE (Carl Zeiss, Oberkochen, Germany).

BY4743 cells = assay: Propidium iodide (PI)-staining assay of plasma membrane integrity; format: cell-based, Saccharomyces cerevisiae; conditions: 1.8, 3.5 and 5.3 µM, 30′ and 2 hours
Protocol: Figure 8 Hypoculoside but not hypoculine disrupts the membrane integrity of yeast cells. (A) Wild type yeast cells pre-treated with either DMSO or hypoculoside (5.4 μM) were exposed to FM 4-64FX. Uptake of FM 4-64FX after 0′, 30′ and 120′ was analyzed by fluorescence microscopy of fixed cells. (B) Yeast cells were incubated with either DMSO or hypoculoside or hypoculine at different concentrations (1.8, 3.5 and 5.3 µM) for 30′ and 2 hours. They were then treated with propidium iodide (PI) and percentage of PI-staining cells was assayed by fluorescence microscopy. Representative images of cells visualized by bright field and fluorescence microscopy are shown along with quantification of PI-staining cells (N = 100 cells) in (C).
We then tested whether hypoculoside causes membrane leakage using the membrane impermeant dye propidium iodide (PI). […] We then incubated the cells with PI and visualized its uptake by fluorescence microscopy. […]
BY4743 cells (OD600 nm ≈ 1) were exposed to various concentrations of hypoculoside or hypoculine or DMSO in YPD for 30′ and 2 hours. […] PI uptake by cells was assayed by bright-field and fluorescence microscopy [Excitation/Emission (nm): 535/617] and the percentage of PI-staining cells (N ≥ 100) was calculated.

[5] = test system: Candida albicans strain SC5314; assay: Broth microdilution growth inhibition of Candida albicans (CLSI guidelines, OD600 after 24 h); format: cell-based; conditions: strain SC5314, OD600 nm after 24 hours, read-out: IC50 for inhibition of growth of C. albicans cells
Protocol: Figure 2 Hypoculoside has antifungal activity. (A) Workflow used in the purification and analysis of hypoculoside from Acremonium sp. F2434. (B) Structure of hypoculoside (8) and its aglycone derivative hypoculine (9). (C) Logarithmically growing Candida albicans cells were exposed to hypoculoside and amphotericin B at various concentrations in triplicates in a 96-well microplate. Growth of the cells was quantified by recording the absorbance at 600 nm after 24 hours. Growth (normalized with respect to DMSO-treated cells) is plotted against log of concentration of the compound. A picture of the microplate after 24 hours of incubation at 30 °C is shown in Supplementary Fig. S2A. (D) Effect of hypoculoside on the growth of Saccharomyces cerevisiae cells grown in YPD medium was analyzed in the similar way as for Candida albicans described above in C.
We evaluated the potency of hypoculoside by examining its effect on the growth of Candida albicans strain (SC5314) using the Clinical and Laboratory Standards Institute (CLSI) guidelines. We used the well-known antifungal amphotericin B as a positive control. We exposed logarithmically growing Candida albicans cells to hypoculoside and amphotericin B at various concentrations and monitored the growth by recording the OD600 nm after 24 hours. […]

cancer cell lines = test system: cancer cell lines; parameters: method as in PMID 18343365; conditions: cited from earlier work
fungi = test system: fungi; parameters: method as in PMID 10654417; conditions: cited from earlier work

Q: Which “growth inhibition of Staphylococcus aureus” value (Staphylococcus aureus) does the source give for `CCCCCCCCCCCCC/C=C/[C@@H](O)[C@@H](N)CO` [sphingosine, (2S,3R,4E)-2-amino-4-octadecen-1,3-diol] here?
A: inhibit the growth

Q: For `CCCCCCC(=O)CCCCCC/C=C/C[C@@H](O)[C@H](O)[C@@](N)(CO)C(=O)O` [Myriocin], which “concentration that inhibited the growth of yeast cells” value ([1]; wild type BY4743, YPD, 24 hours at 30 °C) is on record?
A: 3.11 µM

Q: What does the source list for `CCCCCCCCCCCCCCC[C@@H](O)[C@@H](N)CO` [DHS, dihydrosphingosine, reference compound]?
A: concentration that completely inhibited the growth of wild type yeast cells ([2]; BY4743, YPD): 40 µM; inhibitory concentration relative to inhibitory concentration of hypoculoside [2]: about 4 fold; growth of the 5 hypoculoside-sensitive mutants compared with wild type strain [3]: lower in comparison to wild type strain; rescue of myriocin-induced inhibition [1]: completely rescued; growth inhibition of Staphylococcus aureus (Staphylococcus aureus): inhibit the growth

Q: Which results are given for `CC(N)C(O)CCCCCCCCCCCCCCCCCCC(O)C(C)O` (stereo not shown) [hypoculine]?
A: concentration that inhibited the growth of wild type cells ([2]; BY4743, YPD, 24 hours at 30 °C (Fig. 5A)): > 200 µM; concentration at which mutants still displayed significant growth ([3]; mutants except for pep8 and vps35 (vps20, vps27, vps36), YPD, 24 hours at 30 °C): > 200 µM; cells with defective vacuoles [4]: 3%; cells with PI staining (BY4743 cells): less than 10%

Q: With `C[C@@H]1[C@H](O)[C@@H](C)/C=C/C=C/C=C/C=C/C=C/C=C/C=C/[C@H](O[C@@H]2O[C@H](C)[C@@H](O)[C@H](N)[C@@H]2O)C[C@@H]2O[C@](O)(C[C@@H](O)C[C@@H](O)[C@H](O)CC[C@@H](O)C[C@@H](O)CC(=O)O[C@H]1C)C[C@H](O)[C@H]2C(=O)O` [amphotericin B, reference compound] as the compound, how does the IC50 [5] read?
A: 32 nM

Q: Which results are given for `CCCCCCCCCCCCCC[C@@H](O)[C@@H](O)[C@@H](N)CO` [PHS, phytosphingosine, reference compound]?
A: concentration that completely inhibited the growth of wild type yeast cells ([2]; BY4743, YPD): 40 µM; inhibitory concentration relative to inhibitory concentration of hypoculoside [2]: about 4 fold; growth of the 5 hypoculoside-sensitive mutants compared with wild type strain [3]: lower in comparison to wild type strain; rescue of myriocin-induced inhibition [1]: completely rescued; growth inhibition of Staphylococcus aureus (Staphylococcus aureus): inhibit the growth

Q: For `CCCCCCCCCCCCCCC[C@@H](O)[C@H](C)N` [spisulosine, 1-deoxysphinganine], which “activity against cancer cell lines” value (cancer cell lines) is on record?
A: potent activity

Q: Which “toxicity to fungi compared with oceanapiside” value (fungi) does the source give for `C[C@@H](N)[C@H](O)CCCCCCCCCCCCCCC(=O)CCCCCCC[C@@H](O)[C@@H](N)CO` [Oceanin] here?
A: considerably more toxic to fungi
